Key:
Type in all cases: cell-based, human
[1] = tested on: HUVECs; assay: Annexin V apoptosis assay on HUVECs; conditions: after 24 hours of quinagolide treatment, 10^-5 and 10^-7 M
Description: FIG. 3: Quinagolide effect on EMSCs apoptosis and proliferation. A: Quinagolide concentration-response curve on ectopic EMSCs in both apoptosis (N=1) and proliferation (N=2) assays. B: Effect of two selected quinagolide doses (10^−5 and 10^−7M) on HUVECs (N=1) and ectopic E-MSCs (N=3) apoptosis and proliferation assays (N=2). Data are represented as mean±SD of the indicated number of experiments and normalized to untreated cells (Control). Annexin V assays were performed using the Muse™ Annexin V & Dead Cell Kit (Millipore), according to the manufacturer's recommendations. Briefly, 20×10^3 cells were plated and after 24 h treated with different concentrations of quinagolide. After 24, 48 and 72 hours, cells were detached and resuspended in Muse™ Annexin V & Dead Cell Kit and the percentage of apoptotic cells (Annexin V+) was measured. Data are expressed as the mean±standard deviation (SD) of the media of absorbance of at least three different experiments and normalized to control.

[2] = tested on: AKT; assay: Western blot of AKT and P-AKT in ectopic EMSCs; conditions: 100 nM quinagolide
Description: (§1) FIG. 6: Quinagolide effect on AKT activation. A: Representative western blot analysis and quantification of AKT levels in eutopic and ectopic EMSCs treated for 48 h with 100 nM quinagolide (Q), compared to untreated cells (CTL). B: Representative western blot analysis and quantification of P-AKT levels, normalized to AKT expression, in eutopic and ectopic EMSCs treated for 48 h with 100 nM quinagolide (Q), respect to untreated cells (CTL). C: Representative western blot analysis and quantification of P-AKT levels in HUVECs, ectopic […] basal), and in […] co-culture with HUVECs, treated or not for 24 h with 100 nM quinagolide (Q100 nM). Data are represented as mean±SD of at least two independent experiments, performed on different EMSC lines, and normalized to Vinculin and to untreated cells (CTL). One-way ANOVA was performed: *=p<0.05 and **=p<0.001 vs CTL. Cell pellets were lysed at 4° C. for 15 minutes in RIPA buffer supplemented with protease and phosphatase inhibitors cocktail and PMSF (Sigma-Aldrich). Proteins were quantified using Bradford solution following the manufacturer procedures (Bio-Rad Inc., Berkely, CA, USA) and aliquots of cell lysates containing 50 μg of proteins were run on 4-12% Mini-Protean TGX Stain-Free Gels (Bio-Rad) under reducing conditions and transferred onto PVDF membrane filters using the iBLOT2 system (Life Technologies). […]

[3] = tested on: AKT; assay: Western blot of P-AKT in eutopic EMSCs; conditions: eutopic cell lines, 100 nM quinagolide, 24 hours (text; legend 48 h)
Description: as §1

[4] = tested on: HUVECs; assay: BrdU cell proliferation assay on HUVECs; conditions: after 24 hours of quinagolide treatment, 10^-5 and 10^-7 M
Description: FIG. 3: Quinagolide effect on EMSCs apoptosis and proliferation. A: Quinagolide concentration-response curve on ectopic EMSCs in both apoptosis (N=1) and proliferation (N=2) assays. B: Effect of two selected quinagolide doses (10^−5 and 10^−7M) on HUVECs (N=1) and ectopic E-MSCs (N=3) apoptosis and proliferation assays (N=2). Data are represented as mean±SD of the indicated number of experiments and normalized to untreated cells (Control). Cells were plated in growth medium at a concentration of 2,500 HUVECs/well and 3,000 E-MSCs/well in a 96-multiwell plate. The day after quinagolide was added to the growth medium at different concentrations after 24 hours. Deoxyribonucleic acid synthesis was detected as incorporation of 5-bromo-2-deoxyuridine (BrdU) into the cellular DNA after 48 hours from cell plaiting, using an enzyme-linked assay kit (Chemicon). Untreated cells were used as control. Data are expressed as the mean±standard deviation (SD) of the media of absorbance of at least three different experiments and normalized to control.

Structure (SMILES): CCCN1C[C@@H](NS(=O)(=O)N(CC)CC)C[C@@H]2Cc3c(O)cccc3C[C@H]21 [quinagolide, N,N-diethyl-N′-[(3S,4aS,10aR)-6-hydroxy-1-propyl-1,2,3,4,4a,5,10,10a-octahydrobenzo[g]quinolin-3-yl]sulfamide]
- apoptosis of HUVEC cells [1]: did not show alteration
- total AKT levels ([2]; ectopic EMSCs, 48 h (FIG. 6A)): reduced
- AKT phosphorylation ([2]; ectopic cell lines, 24 hours (text; legend 48 h)): significant decrease
- AKT phosphorylation [3]: significant decrease
- proliferation of HUVEC cells [4]: did not show alteration
